Source: patent US7163931B2, “Compositions of estrogen-cyclodextrin complexes” (Schering Aktiengesellchaft, priority 2000, dated 2007)

Key:
[1] = Acid dissociation constant (pKa) by photometric titration in aqueous media; type: physicochemical
Protocol: The Acid Dissociation Constant of the EE-β-CD complex in aqueous media was determined.
In aqueous solution, the ethinyl estradiol-β-cyclodextrin complex dissociates into its components according to the law of mass action. […] The pKa was measured by a photometric titration method following the guidance given in the Environmental Assessment Technical Handbook.

[2] = type: physicochemical
Protocol: The molar content of each degradation products is expressed relatively to the initial molar content of ethinyl estradiol that was added to each formulation. Four formulations as well as the pure ethinyl estradiol and the ethinyl estradiol β-cyclodextrin complex were investigated.

Row | Molecule | acid dissociation constant pKa [1] | pKa ([1]; acid dissociation constant pKa) | total known degradation products (% of initial content of EE) [2]
1 | C#C[C@]1(O)CC[C@H]2[C@@H]3CCc4cc(O)ccc4[C@H]3CC[C@@]21C [EE, ethinyl estradiol] | approx. 10.25 | 10.25 ± 0.04 | –
2 | ethinyl estradiol-β-Cyclodextrin complex [EE-β-CD] | – | – | 0.385 % of initial content of EE
